# Laboratory results published in ChEMBL document CHEMBL3779835, “Identification of an Inhibitor of the Aminoglycoside 6'-N-Acetyltransferase type Ib [AAC(6')-Ib] by Glide Molecular Docking” (Medchemcomm, 2016).
# pIC50: −log10 of the molar value. Calls of active or inactive are those of the source. No cut-off for these calls is given here.
# Legend:
# Klebsiella pneumoniae = experiment: Inhibition of AAC(6')-1b in amikacin-resistant Klebsiella pneumoniae harboring AAC(6')-1b assessed as growth inhibition in presence of amikacin
# [1] = Inhibition of AAC(6')-1b (unknown origin) expressed in Escherichia coli TOP10 assessed as reduction in acetylation of kanamycin A in presence of acetyl CoA by DTNB based microplate reader analysis
# [2] = Mixed-noncompetitive inhibition of AAC(6')-1b (unknown origin) expressed in Escherichia coli TOP10 assessed as reduction in acetylation of kanamycin A in presence of varying kanamycin A and in presence of fixed acetyl CoA level by DTNB based microplate reader analysis
# Acinetobacter baumannii [3] = experiment: Inhibition of AAC(6')-1b in amikacin-resistant Acinetobacter baumannii A155 harboring AAC(6')-1b assessed as growth inhibition at 100 uM in presence of 6 ug/ml amikacin
# [4] = Uncompetitive inhibition of AAC(6')-1b (unknown origin) expressed in Escherichia coli TOP10 assessed as reduction in acetylation of kanamycin A in presence of varying acetyl CoA by DTNB based microplate reader analysis
# Acinetobacter baumannii [5] = experiment: Inhibition of AAC(6')-1b in amikacin-resistant Acinetobacter baumannii A155 harboring AAC(6')-1b assessed as growth inhibition at 50 uM in presence of 8 ug/ml amikacin
# [6] = Inhibition of AAC(6')-1b (unknown origin) expressed in Escherichia coli TOP10 assessed as reduction in acetylation of amikacin in presence of acetyl CoA by DTNB based microplate reader analysis
smiles,measurement,setting,value
NCCc1cccc(CN2CCC(O)(CN3CCCCC3)C2)c1 (racemic),growth inhibition (GI),Klebsiella pneumoniae,inactive
same,pIC50,[1],4.40
same,inhibition,[2],Active
same,inhibition,Acinetobacter baumannii [3],Active
same,inhibition,[4],Active
same,inhibition,Acinetobacter baumannii [5],Active
same,pIC50,[6],4.46
